Results: ChEMBL document CHEMBL1129699, “Synthesis of furo[2,3-c]pyran--D-thymidine” (Bioorg Med Chem Lett, 1996)

Legend:
CEM-SS [1] = test: Compound was tested in vitro for its anti-HIV activity in CEM-SS cells; assay type: functional, cell-based; conditions: Homo sapiens
CEM-SS [2] = test: Compound was tested in vitro for its cytotoxicity in CEM-SS cells; assay type: functional; conditions: Homo sapiens

Compound | IC50 (CEM-SS [1]) | CC50 (CEM-SS [2])
Cc1cn(C2CC3CC(CI)OCC3(CO)O2)c(=O)[nH]c1=O (centres undefined) | > 100 µM | > 100 µM
Cc1cn(C2CC3CC(C)OCC3(CO)O2)c(=O)[nH]c1=O (centres undefined) | > 100 µM | > 100 µM
